Like-named read-outs stand apart in the source and are kept apart here.
Columns and labels:
[1] = tested on: HIV-1 production in U1 cells; assay: U1 monocytic cell assay, IL-18-induced HIV-1 p24 antigen; format: cell-based; conditions: for p24 production: 0.5 nM IL-18, 48 hr
Description: U1 monocytic cell assay. U1 cells are obtained from the AIDS Research and Reference Reagent Program, National Institute of Allergy and Infectious Diseases, NIH. U1 cells are maintained in T-175 polystyrene flasks (Falcon, Becton Dickinson, Franklin Lakes, N.J.) in medium and used when in log phase growth. Cells are counted in a hemacytometer, examined for viability by Trypan blue exclusion (>95% for all experiments) and resuspended in fresh medium at 2×10^6 per ml. Two-hundred fifty […] are added to wells of 24-well polystyrene tissue culture plates (Falcon), followed by the addition of medium or AAT to produce the final concentration to be tested in a volume of […]. After 1.0 hr of incubation (37° C., 5% CO2), 50 ml of medium (control) or stimulus diluted in medium are added to wells to produce the final concentration of stimulus to be tested. The final culture volumes are […] and contained 1×10^6 cells per ml. After 48 hr of incubation (37° C. and 5% CO2) 50 ml of 10% (vol/vol) Triton-X-100 (Fisher Scientific, Fair Lawn, N.J.) is added to each culture (final concentration of 1% vol/vol), and cultures are frozen and thawed once. This is followed by assay for HIV-1 p24 antigen by ELISA with a lower limit of detection of 31 pg/ml (NCI-Frederick Cancer Research and Development Center, Frederick, Md.). The disruption of cells due to the addition of Triton-X-100 and the freeze-thaw cycle produced cell lysates and enabled assessment of total (secreted and cell-associated) production of p24 antigen.
Data are presented as means±SEM. Group means are compared by ANOVA using Fisher's least significant difference. For data expressed as percent change, the values for p24 in control cultures (medium alone) are subtracted from those for each culture-containing stimulus. The p24 concentrations in cultures conducted in the presence of stimulus alone are set at 100%. Percent p24 in cultures containing stimulus and AAT are calculated by dividing the measured p24 by that present in cultures containing stimulus alone. The resultant fraction is expressed as a percent.
The U1 cell line is derived from human monocytic U937 cells into which 2 copies of HIV-1 provirus are incorporated into host genome. Exposing U1 cells to pro-inflammatory cytokines such as IL-18, IL-1, IL-6 and TNF, phorbol esters or hyperosmolarity results in the induction of HIV-1 as assessed by p24 antigen. Stimulation of U1 cells with 0.5 nM IL-18 induced large amounts of p24 antigen after 48 hr of incubation in 3 separate experiments. U1 cells cultured in medium alone (control) contained a mean of 41.3±11.5 pg/ml p24 antigen, which is increased 150-fold to 6,235±1,775 pg/ml p24 following stimulation with IL-18. […] At 1, 2 and 3 mg/ml AAT, the percent reductions observed compared to stimulation with IL-18 alone are 65±1.8, 93±3.0 and 98±1%, respectively.

[2] = tested on: HIV-1 production in U1 cells; assay: U1 monocytic cell assay, IL-6-induced HIV-1 p24 antigen; format: cell-based; conditions: for p24 antigen: 100 ng/ml IL-6
[3] = tested on: HIV-1 production in U1 cells; assay: U1 monocytic cell assay, TNF-induced HIV-1 p24 antigen; format: cell-based; conditions: for TNF-induced p24 antigen: 3.0 ng/ml TNF
[4] = tested on: HIV-1 production in U1 cells; assay: U1 monocytic cell assay, LPS-induced HIV-1 p24 antigen; format: cell-based; conditions: for p24 antigen: 500 ng/ml LPS, 48 hrs
U1 cells = assay: U1 cell proliferation and viability (hemacytometer, trypan blue exclusion); format: cell-based, human; conditions: 5 mg/ml AAT, 48 hrs
Method: To evaluate the effect of AAT on U1 cell proliferation and viability, 3 experiments are performed in the presence or absence of 5 mg/ml AAT. U1 cells are added at 1×10^6 cells per ml and cultured for 48 hrs. Following incubation, cells are quantified using a hemacytometer. The mean±SEM cell concentrations in control and AAT-containing cultures are 2.5×10^6±0.5×10^6 and 2.4×10^6±0.3×10^6 respectively. […] For all cultures, cell viability by trypan blue exclusion is >95%. The lack of toxicity is illustrated in FIG. 13.

[5] = tested on: HIV-1 strain A018A in MAGI-CCR-5 cells; format: cell-based; conditions: for mean positive cell count: +HIV-1; for inhibition of MAGI-CCR-5 cell early infection events: compared to HIV-1 alone
NF-κB = assay: IL-18-induced NF-κB expression; format: cell-based; conditions: compared with IL-18 alone (lane 4)

## AAT: Alpha-1-antitrypsin purified from the blood of healthy volunteers to single-band homogeneity
[1]; AAT 0.1 mg/ml
  p24 production: 6,879±207 pg/ml
[1]; AAT 0.5 mg/ml
  p24 production: 3,687±968 pg/ml
[1]; AAT 1 mg/ml
  p24 production: 2,029±625 pg/ml
  percent reduction of p24 compared to IL-18 alone: 65±1.8%
[1]; AAT 2 mg/ml
  p24 production: 452 ± 209 pg/mL
  percent reduction of p24 compared to IL-18 alone: 93±3.0%
[1]; AAT 3 mg/ml
  p24 production: 179 ± 79 pg/mL
  percent reduction of p24 compared to IL-18 alone: 98±1%
[1]; all stimuli tested (IL-18, IL-6, TNF, LPS, hyperosmolarity)
  range of inhibition of HIV-1 production in U1 cells: 73-100%
[2]; AAT 0.1 mg/ml
  p24 antigen: 6,228±2,129 pg/ml
[2]; AAT 0.5 mg/ml
  p24 antigen: 3,992±1,987 pg/ml
[2]; AAT 1 mg/ml
  p24 antigen: 3,850±1,943 pg/ml
[2]; AAT 2 mg/ml
  p24 antigen: 2,597±1,253 pg/ml
[2]; AAT 3 mg/ml
  p24 antigen: 2,155±1,085 pg/ml
  mean percent reduction of IL-6-induced p24: 80%
[2]; AAT 4 mg/ml
  p24 antigen: 1,838±881 pg/ml
  mean percent reduction of IL-6-induced p24: 88%
[2]; AAT 5 mg/ml
  p24 antigen: 1,213±668 pg/ml
  mean percent reduction of IL-6-induced p24: 100%
[3]; AAT 0.1 mg/ml
  TNF-induced p24 antigen: 16,405±8,449 pg/ml
[3]; AAT 0.5 mg/ml
  TNF-induced p24 antigen: 16,863±7,718 pg/ml
[3]; AAT 1 mg/ml
  TNF-induced p24 antigen: 15,328±7,129 pg/ml
[3]; AAT 2 mg/ml
  TNF-induced p24 antigen: 12,566±4,981 pg/ml
[3]; AAT 3 mg/ml
  TNF-induced p24 antigen: 9,341±2,730 pg/ml
  mean percent reduction in TNF-induced p24 antigen: 56%
[3]; AAT 4 mg/ml
  TNF-induced p24 antigen: 9,091±3,436 pg/ml
  mean percent reduction in TNF-induced p24 antigen: 60%
[3]; AAT 5 mg/ml
  TNF-induced p24 antigen: 6,868±2,737 pg/ml
  mean percent reduction in TNF-induced p24 antigen: 73%
[4]; AAT 1 mg/ml
  p24 antigen: 1,108±241 pg/ml
[4]; AAT 2 mg/ml
  p24 antigen: 913 ± 287 pg/mL
[4]; AAT 5 mg/ml
  p24 antigen: 626 ± 257 pg/mL
  inhibition of LPS-induced p24 production: 86%
[4]; AAT 3 mg/ml
  inhibition of LPS-induced p24 production: 71%
[4]; AAT 4 mg/ml
  inhibition of LPS-induced p24 production: 90%
U1 cells
  cell viability by trypan blue exclusion: > 95%
U1 cells; 1×10^6 cells per ml added initially
  mean±SEM cell concentration after culture: 2.4×10^6±0.3×10^6 cells per ml
[5]; AAT 0.1 mg/ml
  mean positive cell count: 74±13
[5]; AAT 1.0 mg/ml
  mean positive cell count: 75±17
[5]; AAT 3.0 mg/ml
  mean positive cell count: 45±12
  inhibition of MAGI-CCR-5 cell early infection events: 41%
[5]; AAT 4.0 mg/ml
  mean positive cell count: 28±9
  inhibition of MAGI-CCR-5 cell early infection events: 66%
[5]; AAT 5.0 mg/ml
  mean positive cell count: 21±12
  inhibition of MAGI-CCR-5 cell early infection events: 76%
[5]; AAT 2.0 mg/ml
  inhibition of MAGI-CCR-5 cell early infection events: 23%
NF-κB
  IL-18-induced NF-κB expression: reduced

Reference: patent publication US7807781B2, “Inhibitors of serine protease activity and their use in methods and compositions for treatment of viral infections” (The Regents of the University of Colorado, priority 1999, dated 2010)
